pIC50: −log10 of the molar value.
Molecular target: T1, Tyrosine-protein phosphatase non-receptor type 1 (Homo sapiens, UniProt P18031)
T1 sequence (P18031 whole entry): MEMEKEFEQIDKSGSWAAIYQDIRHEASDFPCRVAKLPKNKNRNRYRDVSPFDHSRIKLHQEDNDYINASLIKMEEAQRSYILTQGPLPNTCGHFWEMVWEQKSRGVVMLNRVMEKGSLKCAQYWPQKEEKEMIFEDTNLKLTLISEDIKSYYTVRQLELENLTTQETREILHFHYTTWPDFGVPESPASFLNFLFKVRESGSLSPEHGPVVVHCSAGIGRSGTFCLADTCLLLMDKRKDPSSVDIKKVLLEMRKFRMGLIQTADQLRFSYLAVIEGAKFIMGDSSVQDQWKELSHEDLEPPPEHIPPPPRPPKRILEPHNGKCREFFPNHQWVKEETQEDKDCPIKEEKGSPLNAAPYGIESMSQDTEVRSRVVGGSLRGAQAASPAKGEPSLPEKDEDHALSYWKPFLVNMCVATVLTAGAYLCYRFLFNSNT
Experiment: Inhibition of PTP1B

pIC50	SMILES
5.43	O=C(O)c1cc2oc3c(Oc4ccc(-c5ccc(O)c(O)c5)cc4O)cc(O)cc3c2cc1O
5.77	O=C(O)c1cc2oc3c(Oc4ccc(-c5ccc(OS(=O)(=O)O)c(O)c5)cc4O)cc(O)cc3c2cc1O

Reference: ChEMBL document CHEMBL1141330, “Vanillic acid derivatives from the green algae Cladophora socialis as potent protein tyrosine phosphatase 1B inhibitors” (J Nat Prod, 2007)
